This is an account of results in ChEMBL document CHEMBL5506064, “Discovery of ITI-333, a Novel Orally Bioavailable Molecule Targeting Multiple Receptors for the Treatment of Pain and Other Disorders” (J Med Chem, 2024).

Assay [1] addresses D(1A) dopamine receptor (Homo sapiens) (UniProt P21728). Put plainly: Displacement of [3H]SCH-23390 from human dopamine D1 receptor expressed in CHO cell membrane assessed as inhibition of radioligand binding at 100 nM incubated for 60 mins by competition binding based scintillation counter analysis relative to control. It is filed as cell membranes.
The target in assay [2] is D(2) dopamine receptor (Homo sapiens) (UniProt P14416). The assay is described as follows: Displacement of [3H]7-OH-DPAT from human dopamine D2 receptor expressed in HEK293 cell membrane assessed as inhibition of radioligand binding at 100 nM incubated for 60 mins by competition binding based scintillation counter analysis relative to control. It counts as cell membranes. For orientation: Displacement assays read how much labelled ligand stays bound in the presence of the test substance.

Assay [3] deals with Sodium-dependent serotonin transporter (Homo sapiens) (UniProt P31645). Put plainly: Displacement of [3H]-imipramine from human 5-HT transporter expressed in CHO cell membrane assessed as inhibition of radioligand binding at 200 nM incubated for 60 mins by competition binding based scintillation counter analysis relative to control. It is filed as cell membranes.
For assay [4] the target is unchanged. The assay is described as follows: Displacement of [3H]-imipramine from human 5-HT transporter expressed in CHO cell membrane assessed as inhibition of radioligand binding at 100 nM incubated for 60 mins by competition binding based scintillation counter analysis relative to control. It counts as cell membranes.
Assay [5] addresses 5-hydroxytryptamine receptor 2A (Homo sapiens) (UniProt P28223). Put plainly: Displacement of [125I]DOI from human 5-HT2A receptor expressed in HEK293 cell membrane assessed as inhibition of radioligand binding at 100 nM incubated for 60 mins by competition binding based scintillation counter analysis relative to control. It counts as cell membranes.
For assay [6], the target named is T1, Alpha-1A adrenergic receptor (Homo sapiens) (UniProt P35348).
T1 sequence (whole entry): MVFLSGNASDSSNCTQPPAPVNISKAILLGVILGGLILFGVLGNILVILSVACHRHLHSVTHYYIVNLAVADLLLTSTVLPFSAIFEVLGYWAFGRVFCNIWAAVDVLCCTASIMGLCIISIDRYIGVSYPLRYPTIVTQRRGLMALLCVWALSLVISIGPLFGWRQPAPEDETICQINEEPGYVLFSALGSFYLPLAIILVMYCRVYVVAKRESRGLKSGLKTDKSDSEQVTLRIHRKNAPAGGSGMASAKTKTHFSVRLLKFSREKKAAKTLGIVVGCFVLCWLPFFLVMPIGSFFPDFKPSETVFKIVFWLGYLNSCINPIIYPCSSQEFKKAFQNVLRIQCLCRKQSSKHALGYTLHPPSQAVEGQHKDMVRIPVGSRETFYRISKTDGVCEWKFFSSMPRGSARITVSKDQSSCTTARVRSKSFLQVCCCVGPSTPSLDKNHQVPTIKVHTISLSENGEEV
Put plainly: Antagonist activity at human alpha 1A adrenergic receptor expressed in CHO-K1 cells assessed as inhibition of phenylephrine induced […] calcium response at <= 10 uM by whole cell-based assay. It counts as functional. The conditions noted are these: filed as antagonist.

For assay [7], the system named is Mus musculus. The assay is described as follows: Analgesic activity against formalin-induced inflammatory pain C57Bl/6 mouse model assessed as reduction in licking response at 5 mg/kg,SC pretreated for 30 min followed by formalin challenge and measured after 30 mins. It is filed as functional, organism-based. The conditions noted are these: time 60.0 min.
The subject of assay [8] is Mus musculus. The assay is described as follows: Analgesic activity in thermal stimulated CD-1 mouse assessed as increase in latency to pain response at 5 mg/kg,SC administration measured after 30 mins by tail flick assay. It counts as functional, organism-based. (In general: Hot-plate and tail-flick tests time the reaction to a heat stimulus.)
For assay [9], the system named is Mus musculus. Put plainly: Analgesic activity in naloxone induced CD-1 mouse assessed as increase in latency to pain response at 5 mg/kg,po administration measured after 30 mins by tail flick assay. It is filed as functional, organism-based.

Calls of active or inactive are those of the source. No cut-off for these calls is given here.

5-hydroxytryptamine receptor 2A (Homo sapiens), sequence (P28223 whole entry): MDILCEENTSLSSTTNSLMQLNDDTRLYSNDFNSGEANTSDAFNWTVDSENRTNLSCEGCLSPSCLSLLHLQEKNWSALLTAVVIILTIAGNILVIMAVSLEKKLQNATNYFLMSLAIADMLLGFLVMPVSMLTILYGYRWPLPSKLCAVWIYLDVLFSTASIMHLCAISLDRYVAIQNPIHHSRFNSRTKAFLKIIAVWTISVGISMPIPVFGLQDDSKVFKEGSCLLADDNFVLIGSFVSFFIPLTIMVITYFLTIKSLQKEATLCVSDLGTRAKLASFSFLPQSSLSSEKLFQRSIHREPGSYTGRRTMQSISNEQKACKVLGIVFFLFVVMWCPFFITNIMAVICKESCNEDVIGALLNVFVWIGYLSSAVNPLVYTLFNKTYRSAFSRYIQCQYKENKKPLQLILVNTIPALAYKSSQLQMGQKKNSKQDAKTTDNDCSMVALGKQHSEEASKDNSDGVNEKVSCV
Sodium-dependent serotonin transporter (Homo sapiens), sequence (P31645 whole entry, looked up): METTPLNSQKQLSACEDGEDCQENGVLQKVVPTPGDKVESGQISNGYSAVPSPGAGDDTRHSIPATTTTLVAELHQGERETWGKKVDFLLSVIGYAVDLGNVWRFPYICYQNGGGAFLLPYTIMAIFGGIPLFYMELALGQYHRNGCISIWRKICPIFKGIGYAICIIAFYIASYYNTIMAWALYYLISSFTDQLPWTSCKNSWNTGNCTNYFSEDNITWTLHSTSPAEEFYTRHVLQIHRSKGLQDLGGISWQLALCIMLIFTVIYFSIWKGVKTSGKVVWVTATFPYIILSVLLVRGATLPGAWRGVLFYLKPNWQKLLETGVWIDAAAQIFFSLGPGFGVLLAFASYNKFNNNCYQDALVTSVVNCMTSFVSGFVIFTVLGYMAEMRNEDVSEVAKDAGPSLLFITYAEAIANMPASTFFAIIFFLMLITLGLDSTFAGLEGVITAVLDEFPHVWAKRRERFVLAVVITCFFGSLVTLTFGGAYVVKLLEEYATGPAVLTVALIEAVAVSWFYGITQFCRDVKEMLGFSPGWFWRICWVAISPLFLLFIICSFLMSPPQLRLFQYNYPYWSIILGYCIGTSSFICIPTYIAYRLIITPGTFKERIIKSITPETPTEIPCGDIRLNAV
D(2) dopamine receptor (Homo sapiens), sequence (P14416 whole entry): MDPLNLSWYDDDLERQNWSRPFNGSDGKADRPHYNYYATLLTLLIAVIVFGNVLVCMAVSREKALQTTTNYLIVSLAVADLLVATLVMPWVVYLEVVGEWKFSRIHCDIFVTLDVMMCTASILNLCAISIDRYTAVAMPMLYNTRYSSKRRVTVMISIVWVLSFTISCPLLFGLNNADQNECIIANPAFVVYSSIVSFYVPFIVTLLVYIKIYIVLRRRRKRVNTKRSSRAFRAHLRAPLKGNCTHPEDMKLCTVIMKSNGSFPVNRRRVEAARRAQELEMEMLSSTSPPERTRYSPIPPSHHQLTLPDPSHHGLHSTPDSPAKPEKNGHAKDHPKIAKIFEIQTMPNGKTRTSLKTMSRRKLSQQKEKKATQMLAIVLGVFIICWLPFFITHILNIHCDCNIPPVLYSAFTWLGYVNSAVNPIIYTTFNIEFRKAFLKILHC
D(1A) dopamine receptor (Homo sapiens), sequence (P21728 whole entry): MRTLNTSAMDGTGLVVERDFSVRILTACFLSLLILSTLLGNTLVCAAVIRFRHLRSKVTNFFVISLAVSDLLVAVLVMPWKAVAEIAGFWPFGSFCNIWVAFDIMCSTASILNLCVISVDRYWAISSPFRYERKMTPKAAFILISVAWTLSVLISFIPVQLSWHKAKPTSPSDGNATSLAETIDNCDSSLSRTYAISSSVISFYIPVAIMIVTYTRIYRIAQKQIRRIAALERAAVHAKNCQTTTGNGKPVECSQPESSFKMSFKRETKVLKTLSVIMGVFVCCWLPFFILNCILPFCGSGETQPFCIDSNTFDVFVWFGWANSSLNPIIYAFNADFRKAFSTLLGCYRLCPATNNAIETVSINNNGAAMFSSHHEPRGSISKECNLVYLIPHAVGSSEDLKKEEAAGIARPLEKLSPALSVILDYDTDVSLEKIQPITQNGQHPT

With `O=C1CN2c3c(cccc3[C@@H]3CN(CCCOc4ccc(O)cc4)CC[C@@H]32)N1`, in [1], the inhibition entry is “inactive”. Still for that read-out and setting: with `O=C1CN2c3c(cccc3[C@@H]3CN(CCCOc4ccc(Br)cc4)CC[C@@H]32)N1` the entry was “inactive”. As to `O=C1CN2c3c(cccc3[C@@H]3CN(CCCS(=O)(=O)c4ccc(F)cc4)CC[C@@H]32)N1`, the inhibition result in assay [2], in assay [1] and in assay [3] was “inactive” each time. Consider `CC1C(=O)Nc2cccc3c2N1[C@H]1CCN(CCCOc2ccc(F)cc2)C[C@@H]31` (stereo partly specified), for which the inhibition entry in [4] is “inactive”.

Take `O=C1CN2c3c(cccc3[C@@H]3CN(CCOc4ccc(F)cc4)CC[C@@H]32)N1`: the inhibition entry in [4] was “inactive”. `COc1ccc(OCCCN2CC[C@H]3[C@@H](C2)c2cccc4c2N3CC(=O)N4)cc1`: the inhibition result in [1] and in [5] was “inactive” throughout. For the compound `O=C1CN2c3c(cccc3[C@@H]3CN(CCCCOc4ccc(F)cc4)CC[C@@H]32)N1`, in [4], the inhibition entry was “inactive”. Regarding `O=C1CN2c3c(cccc3[C@@H]3CN(CCCO)CC[C@@H]32)N1`, the inhibition entry in [2], in assay [1] and in assay [4] was “inactive” throughout. Consider `O=C1CN2c3c(cccc3[C@@H]3CN(CCCOc4ccc5c(c4)OCO5)CC[C@@H]32)N1`, for which the inhibition entry in [1] and in assay [5] was “inactive” each time. Take `CCCCN1CC[C@H]2[C@@H](C1)c1cccc3c1N2CC(=O)N3`: the inhibition entry in [1], in assay [4] and in assay [5] was “inactive” throughout. On to `NC(=O)c1cc(F)ccc1OCCCN1CC[C@H]2[C@@H](C1)c1cccc3c1N2CC(=O)N3`, for which the inhibition entry in [2] and in [1] was “inactive” each time. As for `Cc1cc(F)cc(C)c1OCCCN1CC[C@H]2[C@@H](C1)c1cccc3c1N2CC(=O)N3`, the inhibition entry in assay [2] and in [1] was “inactive” throughout.

Consider `O=C1CN2c3c(cccc3[C@@H]3CN(CCCOc4ccc(F)cc4)CC[C@@H]32)N1`, for which, in assay [6], the outcome was Active.

`CN1CC[C@]23c4c5ccc(O)c4O[C@H]2[C@@H](O)C=C[C@H]3[C@H]1C5`: the outcome with Mus musculus [7] and with Mus musculus [8] was Active. Further, the outcome in the assay with Mus musculus [9] was inactive.
